Measurements from ChEMBL document CHEMBL5291721, “A preclinical secondary pharmacology resource illuminates target-adverse drug reaction associations of marketed drugs” (Nat Commun, 2023).

Assays:
[1] = target: T1, Alpha-1A adrenergic receptor (Homo sapiens, UniProt P35348); format: functional, cell-based
T1 sequence (P35348 whole entry): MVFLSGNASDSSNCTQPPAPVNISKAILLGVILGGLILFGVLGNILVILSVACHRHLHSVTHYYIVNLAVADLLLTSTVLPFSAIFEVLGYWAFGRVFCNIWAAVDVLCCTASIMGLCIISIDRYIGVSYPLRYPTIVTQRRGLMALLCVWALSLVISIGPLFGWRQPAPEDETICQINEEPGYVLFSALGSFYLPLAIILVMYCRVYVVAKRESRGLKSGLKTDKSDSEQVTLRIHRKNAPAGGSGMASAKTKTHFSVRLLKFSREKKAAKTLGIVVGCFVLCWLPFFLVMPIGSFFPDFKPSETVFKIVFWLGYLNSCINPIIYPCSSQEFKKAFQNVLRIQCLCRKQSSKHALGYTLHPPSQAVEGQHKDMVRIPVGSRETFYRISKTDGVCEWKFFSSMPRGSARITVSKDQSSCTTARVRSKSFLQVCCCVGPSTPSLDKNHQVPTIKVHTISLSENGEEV

[2] = target: T2, Muscarinic acetylcholine receptor M1 (Homo sapiens, UniProt P11229); format: functional
T2 sequence (P11229 whole entry): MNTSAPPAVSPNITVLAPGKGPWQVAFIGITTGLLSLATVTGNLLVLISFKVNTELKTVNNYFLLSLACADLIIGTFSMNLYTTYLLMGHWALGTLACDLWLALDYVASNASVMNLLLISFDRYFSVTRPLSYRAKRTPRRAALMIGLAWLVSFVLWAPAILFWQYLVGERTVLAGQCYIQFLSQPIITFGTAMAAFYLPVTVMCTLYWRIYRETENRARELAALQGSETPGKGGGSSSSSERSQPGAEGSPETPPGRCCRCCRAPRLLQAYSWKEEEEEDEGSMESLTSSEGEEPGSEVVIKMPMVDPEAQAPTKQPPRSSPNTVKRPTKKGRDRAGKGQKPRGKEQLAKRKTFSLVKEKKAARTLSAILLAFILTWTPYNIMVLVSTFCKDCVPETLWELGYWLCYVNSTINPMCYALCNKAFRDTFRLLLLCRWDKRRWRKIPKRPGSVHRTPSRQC

[3] = target: T3, Muscarinic acetylcholine receptor M2 (Homo sapiens, UniProt P08172); format: functional, cell-based
T3 sequence (P08172 whole entry): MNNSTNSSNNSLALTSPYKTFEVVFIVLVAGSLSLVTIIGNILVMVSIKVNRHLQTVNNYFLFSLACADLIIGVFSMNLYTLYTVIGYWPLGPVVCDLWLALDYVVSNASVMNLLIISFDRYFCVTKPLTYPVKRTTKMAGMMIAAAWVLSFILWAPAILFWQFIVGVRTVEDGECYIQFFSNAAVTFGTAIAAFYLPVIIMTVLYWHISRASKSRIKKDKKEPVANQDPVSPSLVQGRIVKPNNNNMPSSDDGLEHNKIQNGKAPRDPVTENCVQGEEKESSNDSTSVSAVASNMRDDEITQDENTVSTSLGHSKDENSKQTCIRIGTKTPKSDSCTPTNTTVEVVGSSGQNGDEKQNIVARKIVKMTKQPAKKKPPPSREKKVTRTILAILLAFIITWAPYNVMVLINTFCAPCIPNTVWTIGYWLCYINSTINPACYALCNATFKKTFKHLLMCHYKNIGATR

Cannabinoid receptor 1 = Cannabinoid receptor 1 (Homo sapiens, UniProt P21554); format: functional, cell-based
D(1A) dopamine receptor = D(1A) dopamine receptor (Homo sapiens, UniProt P21728); format: functional, cell-based
[4] = target: Gamma-aminobutyric acid receptor subunit alpha-1 (Rattus norvegicus, UniProt P62813)
[5] = target: 5-hydroxytryptamine receptor 2B (Homo sapiens, UniProt P41595); format: functional, cell-based
[6] = target: Delta-type opioid receptor (Homo sapiens, UniProt P41143)
[7] = target: T4, Prostaglandin G/H synthase 1 (Rattus norvegicus, UniProt Q63921); format: functional
T4 sequence (Q63921 whole entry): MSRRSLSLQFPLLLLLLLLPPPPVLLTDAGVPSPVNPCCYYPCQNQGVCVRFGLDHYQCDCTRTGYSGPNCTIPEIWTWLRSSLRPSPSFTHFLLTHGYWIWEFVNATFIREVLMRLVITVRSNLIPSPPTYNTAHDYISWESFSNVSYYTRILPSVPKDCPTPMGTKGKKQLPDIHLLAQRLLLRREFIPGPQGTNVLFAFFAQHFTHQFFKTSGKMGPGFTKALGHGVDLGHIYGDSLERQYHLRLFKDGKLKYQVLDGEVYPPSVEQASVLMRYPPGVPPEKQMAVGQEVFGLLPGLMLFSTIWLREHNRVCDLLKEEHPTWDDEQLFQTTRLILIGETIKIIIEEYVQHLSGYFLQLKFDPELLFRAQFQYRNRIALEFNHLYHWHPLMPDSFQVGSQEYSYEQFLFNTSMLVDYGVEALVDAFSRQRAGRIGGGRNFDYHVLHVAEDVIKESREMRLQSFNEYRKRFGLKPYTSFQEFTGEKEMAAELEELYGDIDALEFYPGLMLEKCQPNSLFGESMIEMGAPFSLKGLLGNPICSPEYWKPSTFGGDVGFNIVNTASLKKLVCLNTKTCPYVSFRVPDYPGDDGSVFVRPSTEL

[8] = target: T1, Alpha-1A adrenergic receptor; format: functional, cell-based; remark: listed apart in the source
[9] = target: Glutamate receptor ionotropic, NMDA 1 (Rattus norvegicus, UniProt P35439)
[10] = target: Sodium-dependent serotonin transporter (Homo sapiens, UniProt P31645)
Note: assay procedure not described here.

Sequence of Cannabinoid receptor 1 (P21554 whole entry): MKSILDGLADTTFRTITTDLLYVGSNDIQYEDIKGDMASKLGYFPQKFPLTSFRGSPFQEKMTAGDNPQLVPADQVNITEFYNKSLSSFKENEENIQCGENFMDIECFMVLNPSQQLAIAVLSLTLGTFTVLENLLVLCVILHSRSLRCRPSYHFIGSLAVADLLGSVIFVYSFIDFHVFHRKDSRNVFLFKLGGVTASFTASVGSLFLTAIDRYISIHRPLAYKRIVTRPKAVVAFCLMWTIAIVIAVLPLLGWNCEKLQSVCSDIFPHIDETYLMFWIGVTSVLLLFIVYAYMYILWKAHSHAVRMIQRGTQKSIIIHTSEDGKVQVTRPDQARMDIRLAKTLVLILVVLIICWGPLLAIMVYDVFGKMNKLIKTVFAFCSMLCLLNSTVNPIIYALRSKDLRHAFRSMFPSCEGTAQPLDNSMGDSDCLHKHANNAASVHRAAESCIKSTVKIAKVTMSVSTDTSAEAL
Sequence of Gamma-aminobutyric acid receptor subunit alpha-1 (P62813 whole entry): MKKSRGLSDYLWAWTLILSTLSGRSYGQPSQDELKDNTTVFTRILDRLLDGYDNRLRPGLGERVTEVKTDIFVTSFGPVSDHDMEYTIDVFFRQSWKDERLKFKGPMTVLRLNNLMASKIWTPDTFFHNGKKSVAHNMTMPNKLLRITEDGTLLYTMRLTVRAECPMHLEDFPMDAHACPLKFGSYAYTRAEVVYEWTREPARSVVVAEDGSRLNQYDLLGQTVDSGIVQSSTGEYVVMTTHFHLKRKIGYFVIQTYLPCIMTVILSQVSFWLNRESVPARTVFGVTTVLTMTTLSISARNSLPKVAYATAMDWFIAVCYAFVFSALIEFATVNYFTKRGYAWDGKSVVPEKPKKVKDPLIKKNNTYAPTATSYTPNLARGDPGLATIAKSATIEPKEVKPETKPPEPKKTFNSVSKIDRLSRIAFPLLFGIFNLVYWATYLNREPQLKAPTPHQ
Sequence of 5-hydroxytryptamine receptor 2B (P41595 whole entry): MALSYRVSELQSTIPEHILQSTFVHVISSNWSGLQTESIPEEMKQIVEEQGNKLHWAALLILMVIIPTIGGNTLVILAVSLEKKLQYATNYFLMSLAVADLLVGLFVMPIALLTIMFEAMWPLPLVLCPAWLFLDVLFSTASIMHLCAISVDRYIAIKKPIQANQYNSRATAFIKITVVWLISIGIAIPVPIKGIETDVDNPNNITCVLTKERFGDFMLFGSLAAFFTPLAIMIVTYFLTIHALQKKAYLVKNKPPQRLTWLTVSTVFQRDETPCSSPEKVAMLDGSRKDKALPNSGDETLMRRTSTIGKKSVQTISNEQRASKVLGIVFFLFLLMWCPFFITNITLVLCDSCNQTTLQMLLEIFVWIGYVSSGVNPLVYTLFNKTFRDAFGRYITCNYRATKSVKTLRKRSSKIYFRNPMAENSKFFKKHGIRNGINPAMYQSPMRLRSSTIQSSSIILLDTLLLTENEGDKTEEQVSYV
Sequence of Delta-type opioid receptor (P41143 whole entry): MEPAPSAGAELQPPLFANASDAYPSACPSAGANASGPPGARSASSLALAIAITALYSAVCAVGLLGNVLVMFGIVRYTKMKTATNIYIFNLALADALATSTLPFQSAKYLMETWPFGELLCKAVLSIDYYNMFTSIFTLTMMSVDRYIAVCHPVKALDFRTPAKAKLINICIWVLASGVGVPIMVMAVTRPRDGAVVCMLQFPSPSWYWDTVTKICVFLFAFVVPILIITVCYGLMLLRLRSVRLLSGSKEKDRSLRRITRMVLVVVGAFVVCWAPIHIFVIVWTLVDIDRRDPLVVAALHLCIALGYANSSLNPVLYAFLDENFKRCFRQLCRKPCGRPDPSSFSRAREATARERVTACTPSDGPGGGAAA
Sequence of D(1A) dopamine receptor (P21728 whole entry): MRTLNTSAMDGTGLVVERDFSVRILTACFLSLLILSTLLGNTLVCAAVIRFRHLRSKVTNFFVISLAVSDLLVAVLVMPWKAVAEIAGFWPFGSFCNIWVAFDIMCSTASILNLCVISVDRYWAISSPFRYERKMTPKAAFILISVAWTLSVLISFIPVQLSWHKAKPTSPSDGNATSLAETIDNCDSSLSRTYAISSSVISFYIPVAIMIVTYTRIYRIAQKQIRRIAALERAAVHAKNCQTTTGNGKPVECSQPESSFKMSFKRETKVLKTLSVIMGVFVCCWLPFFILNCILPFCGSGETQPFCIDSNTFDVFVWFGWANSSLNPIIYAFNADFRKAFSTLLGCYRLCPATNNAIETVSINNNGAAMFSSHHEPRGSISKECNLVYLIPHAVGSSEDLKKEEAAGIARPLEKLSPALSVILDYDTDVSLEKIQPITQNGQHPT
Sequence of Sodium-dependent serotonin transporter (P31645 whole entry): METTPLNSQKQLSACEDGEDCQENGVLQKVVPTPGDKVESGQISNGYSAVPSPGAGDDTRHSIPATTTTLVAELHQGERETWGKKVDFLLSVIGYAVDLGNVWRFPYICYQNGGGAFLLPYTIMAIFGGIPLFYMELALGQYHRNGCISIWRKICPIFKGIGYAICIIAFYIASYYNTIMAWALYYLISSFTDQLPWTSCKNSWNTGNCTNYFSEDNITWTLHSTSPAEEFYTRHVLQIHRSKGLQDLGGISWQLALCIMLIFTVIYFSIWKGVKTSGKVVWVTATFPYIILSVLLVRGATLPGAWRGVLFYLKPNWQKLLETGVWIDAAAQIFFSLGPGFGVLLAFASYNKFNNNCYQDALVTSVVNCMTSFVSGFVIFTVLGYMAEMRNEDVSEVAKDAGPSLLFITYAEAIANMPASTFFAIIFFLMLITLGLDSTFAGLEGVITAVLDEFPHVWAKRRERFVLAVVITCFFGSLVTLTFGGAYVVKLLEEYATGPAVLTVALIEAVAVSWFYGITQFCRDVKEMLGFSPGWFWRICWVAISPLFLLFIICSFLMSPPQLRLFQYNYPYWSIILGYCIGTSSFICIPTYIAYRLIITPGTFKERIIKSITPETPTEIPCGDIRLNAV

Work on `CC(C(O)c1ccc(O)cc1)N1CCC(Cc2ccccc2)CC1` (centres undefined) [IFENPRODIL] yielded an AC50 [1] of over 30 µM, an AC50 [2] of over 30 µM and an AC50 [3] of over 30 µM. The AC50 (Cannabinoid receptor 1) was over 30 µM, the AC50 (D(1A) dopamine receptor) was over 30 µM and the AC50 [4] was over 30 µM. The AC50 [5] was over 30 µM, the AC50 [6] was over 30 µM and the AC50 [7] was over 30 µM. It also gave an AC50 [8] of 0.45 µM.
Work on `CC(=O)N(CC(O)CO)c1c(I)c(C(=O)NCC(O)CO)c(I)c(C(=O)NCC(O)CO)c1I` (centres undefined) [IOHEXOL] yielded an AC50 [1] of over 30 µM, an AC50 [2] of over 10 µM and an AC50 [3] of over 10 µM. It also gave an AC50 (Cannabinoid receptor 1) of over 30 µM, an AC50 (D(1A) dopamine receptor) of over 10 µM and an AC50 [4] of over 10 µM. The AC50 [9] was over 10 µM, the AC50 [5] was over 10 µM and the AC50 [6] was over 30 µM. It also gave an AC50 [7] of over 30 µM and an AC50 [8] of over 30 µM.
In the case of `CN(CCCN1c2ccccc2CCc2ccccc21)CC(=O)c1ccc(Cl)cc1` [LOFEPRAMINE], the AC50 [1] is reported as over 30 µM, the AC50 [3] is reported as over 30 µM and the AC50 (Cannabinoid receptor 1) is reported as over 30 µM. It also gave an AC50 (D(1A) dopamine receptor) of over 30 µM, an AC50 [4] of over 30 µM and an AC50 [9] of 25 µM. It also gave an AC50 [5] of over 30 µM, an AC50 [6] of 30 µM and an AC50 [7] of 1.3 µM. For the same molecule, the AC50 [8] was 4.4 µM.
`CC(=O)OC(C)C[N+](C)(C)C` (centres undefined) [METHACHOLINE] showed an AC50 [10] of over 30 µM.
`CN(C/C=C/c1ccccc1)Cc1cccc2ccccc12` [NAFTIFINE] showed an AC50 [1] of over 30 µM, an AC50 [2] of over 10 µM and an AC50 [3] of over 10 µM. It also gave an AC50 (Cannabinoid receptor 1) of over 30 µM, an AC50 (D(1A) dopamine receptor) of over 10 µM and an AC50 [4] of over 10 µM. The AC50 [9] was over 10 µM, the AC50 [5] was over 10 µM and the AC50 [6] was over 30 µM. For the same molecule, the AC50 [7] was 23.1 µM and the AC50 [8] was over 30 µM.
`COc1ccc2c(c1)OC(C)(C)C(c1ccccc1)C2c1ccc(OCCN2CCCC2)cc1` (centres undefined) [ORMELOXIFENE] was tested, and the AC50 [10] was 13.2 µM.
`CC(C)NCC1CCc2cc(CO)c([N+](=O)[O-])cc2N1` (centres undefined) [OXAMNIQUINE] was tested, and the AC50 [1] was over 30 µM, the AC50 [2] was over 10 µM and the AC50 [3] was over 10 µM. The AC50 (Cannabinoid receptor 1) was over 30 µM, the AC50 (D(1A) dopamine receptor) was over 10 µM and the AC50 [4] was over 10 µM. The AC50 [9] was over 10 µM, the AC50 [5] was over 10 µM and the AC50 [6] was over 30 µM. The AC50 [7] was over 10 µM and the AC50 [8] was over 30 µM.
With `CN(C)CCCN1c2ccccc2Sc2ccccc21` [PROMAZINE] the AC50 [1] was over 30 µM, the AC50 [3] was over 10 µM and the AC50 (Cannabinoid receptor 1) was over 30 µM. For the same molecule, the AC50 (D(1A) dopamine receptor) was over 10 µM, the AC50 [4] was over 10 µM and the AC50 [9] was over 10 µM. It also gave an AC50 [5] of over 10 µM, an AC50 [6] of over 10 µM and an AC50 [7] of over 30 µM. For the same molecule, the AC50 [8] was 0.141 µM.
`O=P(O)(O)C(O)(Cc1cccnc1)P(=O)(O)O` [RISEDRONIC ACID] gave an AC50 [1] of over 30 µM, an AC50 [3] of over 30 µM and an AC50 (Cannabinoid receptor 1) of over 30 µM. It also gave an AC50 (D(1A) dopamine receptor) of over 30 µM, an AC50 [4] of over 30 µM and an AC50 [9] of over 30 µM. The AC50 [5] was over 30 µM, the AC50 [6] was over 30 µM and the AC50 [7] was over 30 µM. The AC50 [8] was over 30 µM.
In the case of `CCO[C@@H](Cc1ccc(OCCn2c(C)ccc2-c2ccc(SC)cc2)cc1)C(=O)O` [SAROGLITAZAR], the AC50 [10] is reported as over 30 µM.
Molecule `CC(=O)N[C@H]1[C@H]([C@H](O)[C@H](O)CO)OC(C(=O)O)=C[C@@H]1N=C(N)N` [ZANAMIVIR] has an AC50 [2] of over 30 µM, an AC50 [3] of over 10 µM and an AC50 (D(1A) dopamine receptor) of over 30 µM. For the same molecule, the AC50 [4] was over 10 µM, the AC50 [9] was over 10 µM and the AC50 [5] was over 30 µM. The AC50 [6] was over 30 µM and the AC50 [7] was over 30 µM.
